Legend:
Assay type in all cases: in vivo
[1] = tested on: Sunflower; experiment: Post-emergence herbicidal activity (Example 32); conditions: 3 weeks after spraying
Method in brief: (§1)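 Visual damage rating, 0 to 3 (0 = 0–25% damage, 3 = 75–99% kill, 3+ = 100% kill), taken 3 weeks post-spray versus untreated boxes. Plants were sown 2 cm deep in seed boxes, glasshouse-grown and sub-irrigated. They were treated at 10–12.5 cm height with water-diluted formulations.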

[2] = tested on: Ryegrass; experiment: Post-emergence herbicidal activity (Example 32); conditions: 3 weeks after spraying
Method in brief: as §1

[3] = tested on: Japanese millet; experiment: Post-emergence herbicidal activity (Example 32); conditions: 3 weeks after spraying
Method in brief: as §1

[4] = tested on: Mustard; experiment: Post-emergence herbicidal activity (Example 32); conditions: 3 weeks after spraying
Method in brief: as §1

[5] = tested on: Winter wheat; experiment: Post-emergence herbicidal test, young pot plants (Example 33); parameters: key: 0 = 0-20% damage, 5 = complete kill, vs untreated control; conditions: after 14 days
Method in brief: (§2)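 Herbicidal damage is rated relative to untreated plants on a 0 (0–20%) to 5 (complete kill) scale. Young potted plants are sprayed and assessed at 14 days; seeds sown in fibre trays receive a soil-surface spray under a thin fresh soil layer and are assessed at 21 days.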

[6] = tested on: Maize; experiment: Pre-emergence herbicidal test, fibre trays (Example 33); parameters: key: 0 = 0-20% damage, 5 = complete kill, vs untreated control; conditions: after 21 days
Method in brief: as §2

[7] = tested on: Chenopodium album; experiment: Post-emergence herbicidal test, young pot plants (Example 33); conditions: after 14 days
Method in brief: as §2

[8] = tested on: Amaranthus retroflexus; experiment: as above; conditions: after 14 days
Method in brief: as §2

[9] = tested on: Soy bean; experiment: as above; conditions: after 14 days
Method in brief: as §2

[10] = tested on: Ipomea purpurea; experiment: as above; conditions: after 14 days
Method in brief: as §2

[11] = tested on: Sugar beet; experiment: as above; conditions: after 14 days
Method in brief: as §2

[12] = tested on: Cotton; experiment: as above; conditions: after 14 days
Method in brief: as §2

[13] = tested on: Sunflower; experiment: Pre-emergence herbicidal activity (Example 31); conditions: after three weeks
Method in brief: (§3)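 Ratings run from 0 (0–25% damage) to 3 (75–99% kill), with 3+ meaning complete kill, assessed visually three weeks after spraying. Treatment was applied to soil right after sowing, before germination was triggered by overhead watering in the glasshouse.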

[14] = tested on: Ipomea; experiment: Pre-emergence herbicidal activity (Example 31); conditions: after three weeks
Method in brief: as §3

[15] = tested on: Japanese millet; experiment: Pre-emergence herbicidal activity (Example 31); conditions: after three weeks
Method in brief: as §3

[16] = tested on: Mustard; experiment: Pre-emergence herbicidal activity (Example 31); conditions: after three weeks
Method in brief: as §3

[17] = tested on: Senecio vulgaris; experiment: Pre-emergence herbicidal test, fibre trays (Example 33); conditions: after 21 days
Method in brief: as §2

[18] = tested on: Rape; experiment: as above; conditions: after 21 days
Method in brief: as §2

[19] = tested on: Soy bean; experiment: as above; conditions: after 21 days
Method in brief: as §2

[20] = tested on: Ipomea purpurea; experiment: as above; conditions: after 21 days
Method in brief: as §2

[21] = tested on: Sugar beet; experiment: as above; conditions: after 21 days
Method in brief: as §2

[22] = tested on: Winter wheat; experiment: as above; conditions: after 21 days
Method in brief: as §2

[23] = tested on: Cotton; experiment: as above; conditions: after 21 days
Method in brief: as §2

SMILES | damage to plants, Sf ([1]; 1 kg/ha) | damage to plants, Sf ([1]; 5 kg/ha) | damage to plants, Rg ([2]; 1 kg/ha) | damage to plants, Rg ([2]; 5 kg/ha) | damage to plants, Jm ([3]; 1 kg/ha) | damage to plants, Jm ([3]; 5 kg/ha) | damage to plants, Ms ([4]; 1 kg/ha) | damage to plants, Ms ([4]; 5 kg/ha) | damage to plants, Sf ([13]; 1 kg/ha) | damage to plants, Sf ([13]; 5 kg/ha) | damage to plants, Ip ([14]; 1 kg/ha) | damage to plants, Ip ([14]; 5 kg/ha) | damage to plants, Jm ([15]; 1 kg/ha) | damage to plants, Jm ([15]; 5 kg/ha) | damage to plants, Ms ([16]; 1 kg/ha) | damage to plants, Ms ([16]; 5 kg/ha) | other results
COC(=O)C(C)Oc1ccc(Nc2ccc(Cl)cc2[N+](=O)[O-])cc1 (centres unmarked) [Compound 28] | 0 (0 represents 0 to 25% damage) | 0 (0 represents 0 to 25% damage) | 3+ (3+ represents 100% kill) | 3+ (3+ represents 100% kill) | 3+ (3+ represents 100% kill) | 3+ (3+ represents 100% kill) | 0 (0 represents 0 to 25% damage) | 0 (0 represents 0 to 25% damage) | 0 (0 represents from 0 to 25% damage) | 0 (0 represents from 0 to 25% damage) | 0 (0 represents from 0 to 25% damage) | 0 (0 represents from 0 to 25% damage) | 3+ (3+ represents 100% kill) | 3+ (3+ represents 100% kill) | 0 (0 represents from 0 to 25% damage) | 0 (0 represents from 0 to 25% damage) | damage to test plants, Ww ([5]; 1.0 kg/ha): 4; herbicidal damage, Mz ([6]; 1.0 kg/ha): 0 (0 is 0 to 20% damage); damage to test plants, Ca ([7]; 1.0 kg/ha): 0 (0 is 0 to 20% damage); damage to test plants, Am ([8]; 1.0 kg/ha): 0 (0 is 0 to 20% damage); damage to test plants, Sy ([9]; 1.0 kg/ha): 0 (0 is 0 to 20% damage); damage to test plants, Ip ([10]; 1.0 kg/ha): 0 (0 is 0 to 20% damage); damage to test plants, Sb ([11]; 1.0 kg/ha): 1; damage to test plants, Ct ([12]; 1.0 kg/ha): 0 (0 is 0 to 20% damage); herbicidal damage, Sn ([17]; 1.0 kg/ha): 0 (0 is 0 to 20% damage); herbicidal damage, Rp ([18]; 1.0 kg/ha): 0 (0 is 0 to 20% damage); herbicidal damage, Sy ([19]; 1.0 kg/ha): 0 (0 is 0 to 20% damage); herbicidal damage, Ip ([20]; 1.0 kg/ha): 0 (0 is 0 to 20% damage); herbicidal damage, Sb ([21]; 1.0 kg/ha): 0 (0 is 0 to 20% damage); herbicidal damage, Ww ([22]; 1.0 kg/ha): 2; herbicidal damage, Ct ([23]; 1.0 kg/ha): 0 (0 is 0 to 20% damage)
COC(=O)C(C)Oc1ccc(N(C)c2ccc(Cl)cc2Cl)cc1 (centres unmarked) [Compound 1, Methyl 2-[4-(2,4-dichloro-N-methylanilino)phenoxy]-propionate] | 0 (0 represents 0 to 25% damage) | 0 (0 represents 0 to 25% damage) | 3+ (3+ represents 100% kill) | 3+ (3+ represents 100% kill) | 3+ (3+ represents 100% kill) | 3+ (3+ represents 100% kill) | 0 (0 represents 0 to 25% damage) | 0 (0 represents 0 to 25% damage) | 0 (0 represents from 0 to 25% damage) | 0 (0 represents from 0 to 25% damage) | 0 (0 represents from 0 to 25% damage) | 0 (0 represents from 0 to 25% damage) | 0 (0 represents from 0 to 25% damage) | 0 (0 represents from 0 to 25% damage) | 0 (0 represents from 0 to 25% damage) | 0 (0 represents from 0 to 25% damage) | damage to test plants, Ww ([5]; 2.0 kg/ha): 3; herbicidal damage, Mz ([6]; 2.0 kg/ha): 0 (0 is 0 to 20% damage); damage to test plants, Ca ([7]; 2.0 kg/ha): 3; damage to test plants, Am ([8]; 2.0 kg/ha): 2; damage to test plants, Sy ([9]; 2.0 kg/ha): 1; damage to test plants, Ip ([10]; 2.0 kg/ha): 0 (0 is 0 to 20% damage); damage to test plants, Sb ([11]; 2.0 kg/ha): 3; damage to test plants, Ct ([12]; 2.0 kg/ha): 1; herbicidal damage, Sn ([17]; 2.0 kg/ha): 0 (0 is 0 to 20% damage); herbicidal damage, Rp ([18]; 2.0 kg/ha): 2; herbicidal damage, Sy ([19]; 2.0 kg/ha): 2; herbicidal damage, Ip ([20]; 2.0 kg/ha): 0 (0 is 0 to 20% damage); herbicidal damage, Sb ([21]; 2.0 kg/ha): 0 (0 is 0 to 20% damage); herbicidal damage, Ww ([22]; 2.0 kg/ha): 0 (0 is 0 to 20% damage); herbicidal damage, Ct ([23]; 2.0 kg/ha): 0 (0 is 0 to 20% damage)
